From the supplement of paper PMC10307832

Tests used:
Test in all cases: relative viability (nuclei count vs DMSO), 5 days (fraction); higher = more cells survive
A-427 = system: A-427
In short: (§1)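 Each reported value is a median over duplicate plates. It expresses relative viability: treated-well nuclei count divided by vehicle-well nuclei count. Lung cancer cell lines in 1536-well plates were dosed by pin tool a day after seeding, alone with one drug or with a fixed anchor-drug dose plus five library-drug doses (not always all listed) in √10 steps, and nuclei were counted after 5 days.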

NCI-H1437 = system: NCI-H1437
In short: as §1

HOP-62 = system: HOP-62
In short: as §1

CAL-12T = system: CAL-12T
In short: as §1

HCC-827 = system: HCC-827
In short: as §1

NCI-H727 = system: NCI-H727
In short: as §1

NCI-H522 = system: NCI-H522
In short: as §1

NCI-H460 = system: NCI-H460
In short: as §1

EMC-BAC-2 = system: EMC-BAC-2
In short: as §1

NCI-H1915 = system: NCI-H1915
In short: as §1

NCI-H1395 = system: NCI-H1395
In short: as §1

NCI-H1792 = system: NCI-H1792
In short: as §1

NCI-H23 = system: NCI-H23
In short: as §1

HCC-366 = system: HCC-366
In short: as §1

HARA = system: HARA
In short: as §1

LCLC-103H = system: LCLC-103H
In short: as §1

NCI-H1755 = system: NCI-H1755
In short: as §1

Question: What does the source list for CCN(CC)CCCCNc1ncc2cc(-c3cc(OC)cc(OC)c3)c(NC(=O)NC(C)(C)C)nc2n1 + NC(=O)Nc1cc(-c2cccc(F)c2)sc1C(=O)N[C@H]1CCCNC1 [AZD7762] (partner 0.2 µM)?
Answer: relative viability (A-427; first compound 0.01 µM): 0.722; relative viability (A-427; first compound 0.03162 µM): 0.671; relative viability (A-427; first compound 0.1 µM): 0.778; relative viability (A-427; first compound 0.3162 µM): 0.549; relative viability (A-427; first compound 1 µM): 0.421; relative viability (NCI-H1437; first compound 0.01 µM): 1.2; relative viability (NCI-H1437; first compound 0.03162 µM): 1.07; relative viability (NCI-H1437; first compound 0.1 µM): 1.17; relative viability (NCI-H1437; first compound 0.3162 µM): 1.17; relative viability (NCI-H1437; first compound 1 µM): 1.04; relative viability (HOP-62; first compound 0.01 µM): 0.343; relative viability (HOP-62; first compound 0.03162 µM): 0.666; relative viability (HOP-62; first compound 0.1 µM): 0.939; relative viability (HOP-62; first compound 0.3162 µM): 0.684; relative viability (HOP-62; first compound 1 µM): 0.431; relative viability (CAL-12T; first compound 0.01 µM): 0.594; relative viability (CAL-12T; first compound 0.03162 µM): 0.564; relative viability (CAL-12T; first compound 0.1 µM): 0.796; relative viability (CAL-12T; first compound 0.3162 µM): 0.758; relative viability (CAL-12T; first compound 1 µM): 0.641; relative viability (HCC-827; first compound 0.01 µM): 0.222; relative viability (HCC-827; first compound 0.03162 µM): 0.249; relative viability (HCC-827; first compound 0.1 µM): 0.217; relative viability (HCC-827; first compound 0.3162 µM): 0.236; relative viability (HCC-827; first compound 1 µM): 0.196; relative viability (NCI-H727; first compound 0.01 µM): 0.766; relative viability (NCI-H727; first compound 0.03162 µM): 0.63; relative viability (NCI-H727; first compound 0.1 µM): 0.677; relative viability (NCI-H727; first compound 0.3162 µM): 0.791; relative viability (NCI-H727; first compound 1 µM): 0.667; relative viability (NCI-H522; first compound 0.01 µM): 0.772; relative viability (NCI-H522; first compound 0.03162 µM): 0.831; relative viability (NCI-H522; first compound 0.1 µM): 0.846; relative viability (NCI-H522; first compound 0.3162 µM): 0.781; relative viability (NCI-H522; first compound 1 µM): 0.88; relative viability (NCI-H460; first compound 0.01 µM): 0.607; relative viability (NCI-H460; first compound 0.03162 µM): 0.739; relative viability (NCI-H460; first compound 0.1 µM): 0.716; relative viability (NCI-H460; first compound 0.3162 µM): 0.821; relative viability (NCI-H460; first compound 1 µM): 0.4; relative viability (EMC-BAC-2; first compound 0.03162 µM): 1.14; relative viability (EMC-BAC-2; first compound 0.1 µM): 1.3; relative viability (EMC-BAC-2; first compound 0.3162 µM): 1.16; relative viability (EMC-BAC-2; first compound 1 µM): 1.07; relative viability (NCI-H1915; first compound 0.01 µM): 0.655; relative viability (NCI-H1915; first compound 0.03162 µM): 0.753; relative viability (NCI-H1915; first compound 0.1 µM): 0.708; relative viability (NCI-H1915; first compound 0.3162 µM): 0.757; relative viability (NCI-H1915; first compound 1 µM): 0.736; relative viability (NCI-H1395; first compound 0.01 µM): 0.402; relative viability (NCI-H1395; first compound 0.03162 µM): 0.338; relative viability (NCI-H1395; first compound 0.1 µM): 0.422; relative viability (NCI-H1395; first compound 0.3162 µM): 0.392; relative viability (NCI-H1395; first compound 1 µM): 0.309; relative viability (NCI-H1792; first compound 0.01 µM): 0.817; relative viability (NCI-H1792; first compound 0.03162 µM): 0.408; relative viability (NCI-H1792; first compound 0.1 µM): 0.749; relative viability (NCI-H1792; first compound 0.3162 µM): 0.673; relative viability (NCI-H1792; first compound 1 µM): 0.586; relative viability (NCI-H23; first compound 0.01 µM): 0.229; relative viability (NCI-H23; first compound 0.03162 µM): 0.352; relative viability (NCI-H23; first compound 0.1 µM): 0.323; relative viability (NCI-H23; first compound 0.3162 µM): 0.207; relative viability (NCI-H23; first compound 1 µM): 0.172; relative viability (HCC-366; first compound 0.01 µM): 0.256; relative viability (HCC-366; first compound 0.03162 µM): 0.462; relative viability (HCC-366; first compound 0.1 µM): 0.277; relative viability (HCC-366; first compound 0.3162 µM): 0.289; relative viability (HCC-366; first compound 1 µM): 0.247; relative viability (HARA; first compound 0.01 µM): 0.245; relative viability (HARA; first compound 0.03162 µM): 0.376; relative viability (HARA; first compound 0.1 µM): 0.327; relative viability (HARA; first compound 0.3162 µM): 0.277; relative viability (HARA; first compound 1 µM): 0.241; relative viability (LCLC-103H; first compound 0.01 µM): 0.926; relative viability (LCLC-103H; first compound 0.03162 µM): 0.843; relative viability (LCLC-103H; first compound 0.1 µM): 0.824; relative viability (LCLC-103H; first compound 0.3162 µM): 0.83; relative viability (LCLC-103H; first compound 1 µM): 0.705; relative viability (NCI-H1755; first compound 0.01 µM): 0.429; relative viability (NCI-H1755; first compound 0.03162 µM): 0.546; relative viability (NCI-H1755; first compound 0.1 µM): 0.525; relative viability (NCI-H1755; first compound 0.3162 µM): 0.421; relative viability (NCI-H1755; first compound 1 µM): 0.365
